Results reported in paper PMC11497264 (Chembiochem, 2024).
Where two headings read alike, the source gives them in different places. Bridge positions count the residues as written; N and C are the ends. Peptide text beside a SMILES is read from it.

Biological target: T1, human GRP78 (Homo sapiens, UniProt P11021)
T1 construct: The full length human GRP78 protein recombinantly produced in Escherichia coli; 6xHis (inferred from capture on nickel-NTA chip); purchased Abcam (Cambridge, UK); host or cells: Escherichia coli
T1 sequence (P11021 19-654): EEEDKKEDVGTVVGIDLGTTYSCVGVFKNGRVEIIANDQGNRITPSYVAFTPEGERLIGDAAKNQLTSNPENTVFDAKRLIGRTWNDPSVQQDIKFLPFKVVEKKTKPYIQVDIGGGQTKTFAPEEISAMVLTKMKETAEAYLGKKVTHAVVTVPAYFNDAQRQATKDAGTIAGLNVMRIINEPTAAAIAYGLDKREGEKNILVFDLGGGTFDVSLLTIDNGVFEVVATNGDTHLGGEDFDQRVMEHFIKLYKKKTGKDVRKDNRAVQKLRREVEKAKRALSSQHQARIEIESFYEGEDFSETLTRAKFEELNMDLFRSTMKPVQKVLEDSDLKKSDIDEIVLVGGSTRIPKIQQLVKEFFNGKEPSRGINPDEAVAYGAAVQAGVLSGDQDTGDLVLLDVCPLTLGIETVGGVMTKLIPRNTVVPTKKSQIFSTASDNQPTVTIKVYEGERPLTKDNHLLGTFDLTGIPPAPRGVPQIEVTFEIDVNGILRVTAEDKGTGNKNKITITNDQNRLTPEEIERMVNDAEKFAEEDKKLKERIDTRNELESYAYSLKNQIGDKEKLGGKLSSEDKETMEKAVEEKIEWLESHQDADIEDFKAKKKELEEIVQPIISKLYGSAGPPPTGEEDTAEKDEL
Assay: biochemical
Assay type: binding

CC(C)C[C@@H]1NC(=O)[C@H](C)NC(=O)[C@H](C(C)C)NC(=O)[C@H]([C@@H](C)O)NC(=O)[C@@H](N)CSSC[C@@H](C(N)=O)NC(=O)[C@H](C(C)C)NC(=O)[C@H](CCCNC(=N)N)NC(=O)[C@H](C(C)C)NC(=O)[C@H](Cc2ccc(O)cc2)NC(=O)CNC(=O)CNC(=O)[C@@H]2CCCN2C1=O [Pep42, reference compound] (H-CTVALPGGYVRVC-NH2; disulfide 1-13)
Kd (affinity of binding to GRP78): 3.4 mM | kon (read-out: Ka1 (association rate constant 1)): 160 M⁻¹ s⁻¹ | koff (read-out: Kd1 (dissociation rate constant 1)): 0.678 s⁻¹ | koff (read-out: Kd2 (dissociation rate constant 2)): 0.0116 s⁻¹
